Results published in US20130338184A1, “2-AMINO-NAPHTHYRIDINE DERIVATIVES” (priority 2011, published 2013).

Experiment: Metabolic stability in human liver S9 fractions
Assay type: in vitro ADME
Conditions: for % Δ of % parent remaining (relative to S): relative to Pagoclone (S); for % Δ of % parent remaining (relative to racemic): relative to Pagoclone (racemic)
Method: Materials: Human liver S9 (20 mg/mL) were obtained from Xenotech, LLC (Lenexa, Kans.). (3-nicotinamide adenine dinucleotide phosphate, reduced form (NADPH), magnesium chloride (MgCl2), and dimethyl sulfoxide (DMSO) were purchased from Sigma-Aldrich.
Determination of Metabolic Stability: 10 mM stock solutions of test compounds were prepared in DMSO. The 10 mM stock solutions were diluted to 0.1 mM or 1.0 mM in acetonitrile (ACN). The 20 mg/mL human liver […] were diluted to 2.5 mg/mL in 0.1 M potassium phosphate buffer, pH 7.4, containing 3 mM MgCl2 and incubated with alamethicin at 10 μg/mL for 15 minutes on ice. The diluted S9 were added to wells of a 96-well deep-well polypropylene plate in triplicate. 15 μL of the 0.1 mM or 1.0 mM test compound was added to the S9 and the mixture was pre-warmed for 10 minutes. Reactions were initiated by addition of pre-warmed NADPH solution. […] The reaction mixtures were incubated at 37° C., and 50 μL aliquots were removed at 0 and 60 minutes and added to shallow-well 96-well plates which contained 50 μL of ice-cold ACN with internal standard to stop the reactions. The plates were stored at 4° C. for 20 minutes after which 100 μL of water was added to the wells of the plate before centrifugation to pellet precipitated proteins. Supernatants were transferred to another 96-well plate and analyzed for amounts of parent remaining by LC-MS/MS using an Applied Bio-systems API 4000 mass spectrometer.
Data analysis: The in vitro tu2s for test compounds were calculated from the slopes of the linear regression of % parent remaining (1n) vs incubation time relationship.
k=−[slope of linear regression of % parent remaining(ln) vs incubation time]
Data analysis was performed using Microsoft Excel Software.

[1] = human liver S9 fractions, 1 μM tested compound
[2] = human liver S9 fractions, 10 μM tested compound

## CC(C)CCC(=O)CC1c2ccccc2C(=O)N1c1ccc2ccc(Cl)nc2n1 (racemic) [Pagoclone (racemic), 2-(7-chloro-1,8-naphthyridin-2-yl)-3-(5-methyl-2-oxohexyl)isoindolin-1-one, reference compound]
[1]
  % Parent remaining at 1 hr: 37 ± 3.8%
[2]
  % Parent remaining at 1 hr: 11 ± 1.2%

## [2H]C([2H])(C(=O)C([2H])([2H])C([2H])([2H])C([2H])(C([2H])([2H])[2H])C([2H])([2H])[2H])C1c2ccccc2C(=O)N1c1ccc2ccc(Cl)nc2n1 (racemic) [Rac-141, (+/−)-2-(7-Chloro-1,8-naphthyridin-2-yl)-3-(5-(d3-methyl)-2-oxo-1,1,3,3,4,4,5,6,6,6-d10-hexyl)isoindolin-1-one]
1 μM tested compound
  % Δ of % parent remaining (relative to S): 46%
  % Δ of % parent remaining (relative to racemic): 62%
10 μM tested compound
  % Δ of % parent remaining (relative to S): 61%
  % Δ of % parent remaining (relative to racemic): 236%
[1]
  % Parent remaining at 1 hr: 60 ± 8.4%
[2]
  % Parent remaining at 1 hr: 37 ± 2.7%
Human liver S9 fractions, summary in words
  metabolic stability compared to pagoclone and (S)-pagoclone: substantially greater metabolic stability

## CC(C)CCC(=O)CC1c2ccccc2C(=O)N1c1ccc2ccc(Cl)nc2n1 [Pagoclone (S), 2-(7-chloro-1,8-naphthyridin-2-yl)-3-(5-methyl-2-oxohexyl)isoindolin-1-one, reference compound]
[1]
  % Parent remaining at 1 hr: 41 ± 1.0%
[2]
  % Parent remaining at 1 hr: 23 ± 3.9%
